Reference: patent US20230219961A1, “Pyridine acetamide derivative serving as CDK inhibitor, and preparation method therefor and use thereof” (Suzhou AlphaMa Biotechnology Co., Ltd., priority 2020, published 2023)

How the values were obtained:
Mv4-11 cells = assay: Inhibition of the proliferation of Mv4-11 cells (CCK8); format: cell-based
Procedure: The inhibition effect of the compounds of the present disclosure on the proliferation of Mv4-11 cells (ATCC:CRL-9591™) in vitro was determined by the following method:
1) Cell inoculation: Mv4-11 cells with good growing state in logarithmic growth phase were inoculated into a 96-well plate at 20000 cells per well and 50 uL, and cultured at 37° C. and under 5% CO2 condition for 2-4 h.
2) Administration: The compound was diluted with 1640 medium containing 10% FBS and 1% PS: 0.4 uL of the compound with an initial concentration of 1 mM was placed in a dilution plate, each added with 199.6 uL of the above culture medium, and gradiently diluted 4-fold, so that the final concentration in the added cell was 1000, 250, 62.5, 15.625, 3.91, 0.98, 0.24, 0.06 nM. 50 µL of the medium containing the compound was sequentially added, and it was placed in a 37° C., 5% CO2 cell incubator for 48 hours.
3) Detection: 10uL CCK8 (Dojindo, CK 04) solution was added to each well, incubated in 37° C. 5% CO2 cell incubator for 2 hours, and then the OD450 value was read by Synegry H1(BioTek) multimode microplate reader.
4) Calculation: The IC50 value was calculated using Graphpad prism 5.0 software according to the concentration of the compound and the corresponding signal value.

CDK9 = biological target: T1, CDK9 (Homo sapiens, UniProt P50750); assay: Inhibitory effect on the kinase activity of CDK9 in vitro (Caliper); format: biochemical; conditions: 10 uM ATP, 0.2 ug/uL CTD3 peptide; read-out: CDK 9 IC50
T1 construct: purchased Millipore 14-685 M
Procedure: (§1) The detection of the inhibitory effect of the compounds of the present disclosure on the kinase activity of CDK7/CDK9 in vitro was determined by the following method:
(§2) 1) The compound was accurately weighed and dissolved in DMSO (Sigma, D2650) to a concentration of 100 mM for later use. The compound was diluted to 5-fold of a desired highest concentration, and diluted 4-fold into 6 concentration gradients, allowing the final concentration of the compound in the reaction system to be CDK7: 3000, 750, 188, 47, 12, 3 nM; CDK9: 100, 25, 6.25, 1.56, 0.39, 0.098 nM. 5 ul was taken to a 384-well plate (Corning, 4512).
(§3) 2) Kinase reaction: 10uL protein kinase (CDK7: Eurofilns,14-476 M; CDK9: Millipore,14-685 M) solution was added to the 384-well plate (Corning, 4512) containing the compound, and allowed to stand at room temperature for 10 min; a mixed solution of ATP(Sigma, A7699) and substrate polypeptide (CDK7: 77 uM ATP&0.2ug/uL CTD3 peptide (GL Biochem,SY356885); CDK9: 10 uM ATP&0.2 ug/uL CTD3 peptide (GL Biochem,SY356885)) was added, and allowed to stand at 28° C. for a short time; and then a stop solution was added to terminate the reaction at 25 uL per well.
(§4) 3) Detection: Data was collected by Caliper.
(§5) 4) Calculation: The IC50 value was calculated by Graphpad prism 5.0 software according to the concentration of the compound and the corresponding signal value.

CDK7 = biological target: T2, CDK7 (Homo sapiens, UniProt P50613); assay: Inhibitory effect on the kinase activity of CDK7 in vitro (Caliper); format: biochemical; conditions: 77 uM ATP, 0.2 ug/uL CTD3 peptide; read-out: CDK 7 IC50
T2 construct: purchased Eurofilns (sic; Eurofins) 14-476 M
Procedure: as §1, §2, §3, §4, §5

T2 sequence (P50613 whole entry): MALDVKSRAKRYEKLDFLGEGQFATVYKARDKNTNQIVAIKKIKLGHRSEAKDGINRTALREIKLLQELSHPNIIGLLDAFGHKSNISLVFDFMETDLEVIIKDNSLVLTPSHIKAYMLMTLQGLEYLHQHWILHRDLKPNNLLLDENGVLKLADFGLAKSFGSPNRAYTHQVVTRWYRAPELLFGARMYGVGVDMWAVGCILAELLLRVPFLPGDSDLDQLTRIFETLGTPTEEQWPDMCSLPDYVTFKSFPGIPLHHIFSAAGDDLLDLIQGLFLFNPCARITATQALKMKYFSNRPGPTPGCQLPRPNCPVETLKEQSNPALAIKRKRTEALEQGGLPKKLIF
T2 sequence (P51946 whole entry partner): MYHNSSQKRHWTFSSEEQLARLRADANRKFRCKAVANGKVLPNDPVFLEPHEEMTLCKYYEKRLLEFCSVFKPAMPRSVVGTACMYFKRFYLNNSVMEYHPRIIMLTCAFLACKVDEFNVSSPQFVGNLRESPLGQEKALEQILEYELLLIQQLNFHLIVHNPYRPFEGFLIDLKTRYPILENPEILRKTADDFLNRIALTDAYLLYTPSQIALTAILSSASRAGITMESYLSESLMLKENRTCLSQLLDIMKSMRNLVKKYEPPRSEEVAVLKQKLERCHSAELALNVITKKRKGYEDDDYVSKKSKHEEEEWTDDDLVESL
T2 sequence (P51948 whole entry partner): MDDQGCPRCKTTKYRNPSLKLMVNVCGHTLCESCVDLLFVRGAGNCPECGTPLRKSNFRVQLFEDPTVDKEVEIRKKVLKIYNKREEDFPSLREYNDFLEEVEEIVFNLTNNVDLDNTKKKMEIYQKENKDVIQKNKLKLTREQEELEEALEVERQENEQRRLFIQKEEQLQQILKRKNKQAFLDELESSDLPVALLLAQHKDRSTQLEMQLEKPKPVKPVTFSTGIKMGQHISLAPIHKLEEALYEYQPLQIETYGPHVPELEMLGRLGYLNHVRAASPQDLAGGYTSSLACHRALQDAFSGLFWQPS
T1 sequence (P50750 whole entry): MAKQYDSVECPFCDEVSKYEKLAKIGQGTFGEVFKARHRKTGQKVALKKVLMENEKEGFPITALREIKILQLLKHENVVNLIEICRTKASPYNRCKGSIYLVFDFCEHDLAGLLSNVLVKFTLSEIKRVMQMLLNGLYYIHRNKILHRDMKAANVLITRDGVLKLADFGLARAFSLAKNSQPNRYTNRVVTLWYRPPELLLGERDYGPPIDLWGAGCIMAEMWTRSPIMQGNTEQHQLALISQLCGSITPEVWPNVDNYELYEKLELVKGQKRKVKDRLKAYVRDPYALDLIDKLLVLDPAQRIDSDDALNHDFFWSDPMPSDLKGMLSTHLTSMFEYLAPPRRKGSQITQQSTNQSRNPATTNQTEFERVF
T1 sequence (O60563 whole entry partner): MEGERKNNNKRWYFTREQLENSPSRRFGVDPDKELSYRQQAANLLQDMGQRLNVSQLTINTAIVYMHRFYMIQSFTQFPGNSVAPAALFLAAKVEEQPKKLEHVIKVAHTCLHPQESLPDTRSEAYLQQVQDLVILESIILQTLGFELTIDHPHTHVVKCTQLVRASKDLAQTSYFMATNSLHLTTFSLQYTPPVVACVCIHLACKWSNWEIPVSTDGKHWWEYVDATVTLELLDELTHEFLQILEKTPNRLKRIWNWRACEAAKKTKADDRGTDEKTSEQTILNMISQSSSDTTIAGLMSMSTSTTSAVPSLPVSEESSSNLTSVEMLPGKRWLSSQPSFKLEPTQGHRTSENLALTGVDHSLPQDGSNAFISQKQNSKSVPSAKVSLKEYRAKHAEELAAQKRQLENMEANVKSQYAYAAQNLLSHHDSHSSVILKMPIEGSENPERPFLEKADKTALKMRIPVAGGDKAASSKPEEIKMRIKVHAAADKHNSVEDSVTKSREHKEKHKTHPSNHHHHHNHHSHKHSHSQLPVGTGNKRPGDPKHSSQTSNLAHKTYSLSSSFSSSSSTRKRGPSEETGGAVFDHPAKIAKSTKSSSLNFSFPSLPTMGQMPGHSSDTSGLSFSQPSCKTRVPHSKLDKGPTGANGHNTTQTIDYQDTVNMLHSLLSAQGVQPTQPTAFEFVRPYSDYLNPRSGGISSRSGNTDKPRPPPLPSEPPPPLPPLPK

Question: Which IC50 (Mv4-11 cells; Homo sapiens, MV4-11, 48 h) does the source give for `COc1cc([C@H](C)C(=O)Nc2cc(-c3cnn4c3CC(C)(C)C4)c(Cl)cn2)ccn1` [Compound 16-1, (S)-N-(5-chloro-4-(5,5-dimethyl-5,6-dihydro-4H-pyrrolo[1,2-b]pyrazol-3-yl)pyridin-2-yl)-2-(2-methoxypyridin-4-yl)propionamide (assumed)] here?
Answer: The IC50 was 6.4 nM.

Question: And the IC50 (CDK9)?
Answer: Its IC50 is 3.4 nM.

Question: What does the source list for `CC(=O)Nc1cccc(CC(=O)Nc2cc(-c3cnn4c3CC(C)(C)C4)c(Cl)cn2)c1` [Compound 8, 2-(3-acetylaminophenyl)-N-(5-chloro-4-(5,5-dimethyl-5,6-dihydro-4H-pyrrolo[1,2-b]pyrazol-3-yl)pyridin-2-yl)acetamide]?
Answer: IC50 (CDK7): 116 nM; IC50 (Mv4-11 cells; Homo sapiens, MV4-11, 48 h): 19.6 nM; IC50 (CDK9): 3.4 nM

Question: How did the IC50 (Mv4-11 cells; Homo sapiens, MV4-11, 48 h) turn out when `CC(=O)Nc1cccc([C@@H](C)C(=O)Nc2cc(-c3cnn4c3CC(C)(C)C4)c(Cl)cn2)c1` [Compound 14-2, (R)-2-(3-acetylaminophenyl)-N-(5-chloro-4-(5,5-dimethyl-5,6-dihydro-4H-pyrrolo[1,2-b]pyrazol-3-yl)pyridin-2-yl)propionamide (assumed)] was run?
Answer: Its IC50 is 136 nM.

Question: With `CC(=O)N[C@@H]1CCC[C@H](C(=O)Nc2cc(-c3cnn4c3CC(C)(C)C4)c(Cl)cn2)C1` [AZD4573, reference compound] as the compound, how does the IC50 (CDK7) read?
Answer: The IC50 was 109 nM.

Question: And the IC50 (Mv4-11 cells; Homo sapiens, MV4-11, 48 h)?
Answer: Its IC50 is 4.2 nM.

Question: What does the source list for `COc1ccc(CC(=O)Nc2cc(-c3cnn4c3CC(C)(C)C4)c(Cl)cn2)cn1` [Compound 12, N-(5-chloro-4-(5,5-dimethyl-5,6-dihydro-4 H-pyrrolo[1,2-b]pyrazol-3-yl)pyridin-2-yl) -2-(6-methoxypyridin-3-yl)acetamide]?
Answer: IC50 (Mv4-11 cells; Homo sapiens, MV4-11, 48 h): 12.2 nM; IC50 (CDK9): 5.2 nM

Question: With `C=CC(=O)NCc1ccc(-c2ccc([C@@H](C)C(=O)Nc3cc(-c4cnn5c4CC(C)(C)C5)c(Cl)cn3)cn2)cn1` [Compound 20-2, (R)-N-((5-(1-((5-chloro-4-(5,5-dimethyl-5,6-dihydro-4H-pyrrolo[1,2-b]pyrazol-3-yl)pyridin-2-yl)amino)-1-oxopropan-2-yl)-[2,3′ -bipyridin]-6′-yl)methyl)acrylamide (assumed)] as the compound, how does the IC50 (Mv4-11 cells; Homo sapiens, MV4-11, 48 h) read?
Answer: Its IC50 is 850 nM.

Question: Which IC50 (Mv4-11 cells; Homo sapiens, MV4-11, 48 h) does the source give for `C[C@H](C(=O)Nc1cc(-c2cnn3c2CC(C)(C)C3)c(Cl)cn1)c1cccnc1` [Compound 11-1, (S)-N-(5-chloro-4-(5,5-dimethyl-5,6-dihydro-4H-pyrrolo[1,2-b]pyrazol-3-yl)pyridin-2-yl)-2-(pyridin-3-yl)propionamide (assumed)] here?
Answer: Its IC50 is 893 nM.

Question: `CC1(C)Cc2c(-c3cc(NC(=O)Cc4ccncc4)ncc3Cl)cnn2C1` [Compound 5, N-(5-chloro-4-(5,5-dimethyl-5,6-dihydro-4 H-pyrrolo[1,2-b]pyrazol-3-yl)pyridin-2-yl) -2-(pyridin-4-yl)acetamide] was tested. Which IC50 (Mv4-11 cells; Homo sapiens, MV4-11, 48 h) did it give?
Answer: Its IC50 is 26 nM.

Question: Which IC50 (Mv4-11 cells; Homo sapiens, MV4-11, 48 h) does the source give for `COc1cc([C@@H](C)C(=O)Nc2cc(-c3cnn4c3CC(C)(C)C4)c(Cl)cn2)ccn1` [Compound 16-2, (R)-N-(5-chloro-4-(5,5-dimethyl-5,6-dihydro-4H-pyrrolo[1,2-b]pyrazol-3-yl)pyridin-2-yl)-2-(2-methoxypyridin-4-yl)propionamide (assumed)] here?
Answer: The IC50 was 469 nM.

Question: `CC1(C)Cc2c(-c3cc(NC(=O)Cc4cccc(C#N)c4)ncc3Cl)cnn2C1` [Compound 4, N-(5-chloro-4-(5,5-dimethyl-5,6-dihydro-4 H-pyrrolo[1,2-b]pyrazol-3-yl)pyridin-2-yl) -2-(3-cyanophenyl)acetamide] was tested. Which IC50 (Mv4-11 cells; Homo sapiens, MV4-11, 48 h) did it give?
Answer: Its IC50 is 10.7 nM.

Question: Which IC50 (Mv4-11 cells; Homo sapiens, MV4-11, 48 h) does the source give for `CC1(C)Cc2c(-c3cc(NC(=O)Cc4cccc(NC(=O)CC#N)c4)ncc3Cl)cnn2C1` [Compound 9, N-(5-chloro-4-(5,5-dimethyl-5,6-dihydro-4 H-pyrrolo[1,2-b]pyrazol-3-yl)pyridin-2-yl) -2-(3-(2-cyanoacetylamino)phenyl)acetamide] here?
Answer: Its IC50 is 13 nM.

Question: What does the source list for `CC(=O)Nc1cccc([C@H](C)C(=O)Nc2cc(-c3cnn4c3CC(C)(C)C4)c(Cl)cn2)c1` [Compound 14-1, (S)-2-(3-acetylacetylaminophenyl)-N-(5-chloro-4-(5,5-dimethyl-5,6-dihydro-4H-pyrrolo [1,2-b]pyrazol-3-yl)pyridin-2-yl)propionamide (assumed)]?
Answer: IC50 (Mv4-11 cells; Homo sapiens, MV4-11, 48 h): 10.1 nM; IC50 (CDK9): 2.3 nM

Question: `CC1(C)Cc2c(-c3cc(NC(=O)Cc4cccc(C#N)n4)ncc3Cl)cnn2C1` [Compound 7, N-(5-chloro-4-(5,5-dimethyl-5,6-dihydro-4 H-pyrrolo[1,2-b]pyrazol-3-yl)pyridin-2-yl) -2-(6-cyanopyridin-2-yl)acetamide] was tested. Which IC50 (CDK7) did it give?
Answer: Its IC50 is 118 nM.

Question: And the IC50 (Mv4-11 cells; Homo sapiens, MV4-11, 48 h)?
Answer: The IC50 was 8.2 nM.

Question: What about the IC50 (CDK9) of the same compound?
Answer: Its IC50 is 1.7 nM.

Question: For `CC1(C)Cc2c(-c3cc(NC(=O)Cc4cccnc4)ncc3Cl)cnn2C1` [Compound 6, N-(5-chloro-4-(5,5-dimethyl-5,6-dihydro-4 H-pyrrolo[1,2-b]pyrazol-3-yl)pyridin-2-yl) -2-(pyridin-3-yl)acetamide], which IC50 (CDK7) is on record?
Answer: The IC50 was 197 nM.

Question: What about the IC50 (Mv4-11 cells; Homo sapiens, MV4-11, 48 h) of the same compound?
Answer: The IC50 was 9.9 nM.

Question: What about the IC50 (CDK9) of the same compound?
Answer: Its IC50 is 3.1 nM.

Question: What does the source list for `C=CC(=O)NCc1ccc(-c2ccc([C@H](C)C(=O)Nc3cc(-c4cnn5c4CC(C)(C)C5)c(Cl)cn3)cn2)cn1` [Compound 20-1, (S)-N-((5-(1-((5-chloro-4-(5,5-dimethyl-5,6-dihydro-4H-pyrrolo[1,2-b]pyrazol-3-yl)pyridin-2-yl)amino)-1-oxopropan-2-yl)-[2,3′ -bipyridin]-6′-yl)methyl)acrylamide (assumed)]?
Answer: IC50 (CDK7): 25.1 nM; IC50 (Mv4-11 cells; Homo sapiens, MV4-11, 48 h): 3.7 nM; IC50 (CDK9): 8.4 nM

Question: What does the source list for `C[C@H](C(=O)Nc1cc(-c2cnn3c2CC(C)(C)C3)c(Cl)cn1)c1ccnc(C#N)c1` [Compound 15-1, (S)-N-(5-chloro-4-(5,5-dimethyl-5,6-dihydro-4H-pyrrolo[1,2-b]pyrazol-3-yl)pyridin-2-yl)-2-(2-cyanopyridin-4-yl)propionamide (assumed)]?
Answer: IC50 (Mv4-11 cells; Homo sapiens, MV4-11, 48 h): 11.2 nM; IC50 (CDK9): 5.9 nM

Question: For `C[C@@H](C(=O)Nc1cc(-c2cnn3c2CC(C)(C)C3)c(Cl)cn1)c1ccnc(C(C)(C)O)c1` [Compound 18-2, (R)-N-(5-chloro-4-(5,5-dimethyl-5,6-dihydro-4H-pyrrolo[1,2-b]pyrazol-3-yl)pyridin-2-yl)-2-(2-(2-hydroxypropan-2-yl)pyridin-4-yl)propionamide (assumed)], which IC50 (CDK7) is on record?
Answer: Its IC50 is 74 nM.

Question: What about the IC50 (Mv4-11 cells; Homo sapiens, MV4-11, 48 h) of the same compound?
Answer: The IC50 was 25 nM.

Question: What about the IC50 (CDK9) of the same compound?
Answer: The IC50 was 3 nM.

Question: How did the IC50 (Mv4-11 cells; Homo sapiens, MV4-11, 48 h) turn out when `C[C@@H](C(=O)Nc1cc(-c2cnn3c2CC(C)(C)C3)c(Cl)cn1)c1ccnc(C#N)c1` [Compound 15-2, (R)-N-(5-chloro-4-(5,5-dimethyl-5,6-dihydro-4H-pyrrolo[1,2-b]pyrazol-3-yl)pyridin-2-yl)-2-(2-cyanopyridin-4-yl)propionamide (assumed)] was run?
Answer: The IC50 was 161 nM.

Question: How did the IC50 (Mv4-11 cells; Homo sapiens, MV4-11, 48 h) turn out when `C[C@H](C(=O)Nc1cc(-c2cnn3c2CC(C)(C)C3)c(Cl)cn1)c1cccc(C(N)=O)c1` [Compound 2-1, (S)-3-(1-((5-chloro-4-(5,5-dimethyl-5,6-di hydro-4H-pyrrolo[1,2-b]pyrazol-3-yl)pyridin-2-yl)amino)-1-oxopropan-2-yl)benzamide (assumed)] was run?
Answer: Its IC50 is > 1000 nM.

Question: How did the IC50 (Mv4-11 cells; 48 hours) turn out when `C[C@H](C(=O)Nc1cc(-c2cnn3c2CC(C)(C)C3)c(Cl)cn1)c1ccc(-c2cccnc2)nc1` [Compound 19-1, (S)-2-([2,3′-bipyridin]-5-yl)-N-(5-chloro-4-(5,5-dimethyl-5,6-dihydro-4H-pyrrolo[1,2-b]pyrazol-3-yl)pyridin-2-yl)propionamide (assumed)] was run?
Answer: Its IC50 is 13.9 nM.

Question: `CC1(C)Cc2c(-c3cc(NC(=O)Cc4cccc(C(N)=O)c4)ncc3Cl)cnn2C1` [Compound 1, 3-(2-((5-chloro-4-(5,5-dimethyl-5,6-dihydro-4H-pyrrolo[1,2-b]pyrazol-3-yl)pyridin-2-yl)amino)-2-oxoethyl)benzamide] was tested. Which IC50 (CDK7) did it give?
Answer: The IC50 was 96 nM.

Question: And the IC50 (Mv4-11 cells; Homo sapiens, MV4-11, 48 h)?
Answer: The IC50 was 7.4 nM.

Question: And the IC50 (CDK9)?
Answer: Its IC50 is 3 nM.
